In PubChem BioAssay AID1963865 (Molecular Pharmacology Branch, DTP, NCI, 2024):

Test system: KRAS PDC multicell spheroid viability
Experiment: Anticancer human tumor 825966-067-R-J1-PDC patient-derived colon carcinoma cell line growth inhibition [KRAS2]
Conditions: for IC50: curve of first compound; for viability, T/C: stronger effect = lower value
Text: Multicellular complex tumor spheroid response to RAS pathway inhibitors in combination with a targeted agents in patient-derived cell lines with oncogenic KRAS variants from multiple cancer types
A high-throughput screen of multi-cell type tumor spheroids was designed to identify active combinations of targeted small molecules and KRAS pathway inhibitors. Complex spheroids include a stromal component modeled by human endothelial cells (HUVEC) and fibroblasts modeled by human mesenchymal stem cells (MSCs). The concentration ranges selected for each drug and investigational agent were based upon clinically achievable concentrations if the clinical Cmax of the agent was known.
Compounds. The drugs and investigational agents: BI-3406 (NSC825286), BAY-293 (NSC824723), batoprotafib (TNO155; NSC825523), sotorasib (AMG 510; NSC818433), MRTX1257 (NSC819558), elimusertib (BAY 1895344; NSC800525), molibresib (GSK525762; NSC774829), temuterkib (LY3214996; NSC803410), venetoclax (NSC766270), alisertib (NSC759677), olaparib (NSC753686), talazoparib (NSC767125), erdafitinib (NSC781556), ipatasertib (NSC767898), cabozantinib (NSC761068), nintedanib (NSC756659), abemaciclib (NSC768073), docetaxel (NSC628503), trametinib (NSC758246), and sapanisertib (NSC764658) were obtained from the National Cancer Institute (NCI) Developmental Therapeutics Program Chemical Repository. The FDA-approved anticancer drug set is available from the Developmental Therapeutics Program. […] The stock solutions were prepared in dimethyl sulfoxide (DMSO, Sigma-Aldrich, St. Louis, MO, cat. D2650) at 800-fold the tested concentration and stored at -70 degrees C prior to their use. All drugs and investigational agents were tested over a range starting from a high concentration at or near the clinical Cmax and decreasing in half-log increments. If the clinical Cmax for an agent had not been determined, the highest concentration tested was 10 microM.
Cell Culture. All cells were maintained in an incubator at 37 degrees C and 5% CO2 with 95% humidity. The PDC lines were cultured according to standard operating procedures established by the NCI PDMR (https://pdmr.cancer.gov/sops/default.htm). Briefly, all PDCs were thawed and cultured in Matrigel-coated flasks prepared with a working solution of 1X Ham's F-12 nutrient mix, without supplementation (Invitrogen, Waltham, MA, cat. 11765054), 100 U/mL penicillin-streptomycin (Invitrogen, cat. 15140122), and 2.5% Matrigel (Corning Inc., Corning, NY, cat. 354248) for the first three passages. All PDCs were cultured in complete DMEM/F-12 media containing advanced DMEM/F-12 (Invitrogen, cat. 12634028), 4.9% defined fetal bovine serum, heat inactivated (HyClone Laboratories Inc., Logan, UT, cat. SH30070.03HI), 389 ng/mL hydrocortisone (Sigma-Aldrich, cat. H4001), 9.7 ng/mL human EGF recombinant protein (Invitrogen, cat. PHG0313), 23.4 microg/mL adenine (Sigma-Aldrich, cat. A2786), 97.3 U/mL penicillin-streptomycin (Invitrogen, cat. 15140122), 1.9 mM L-glutamine (Invitrogen, cat. 25030081), and 9.7 microM Y-27632 dihydrochloride (Tocris Bioscience, Bristol, United Kingdom, cat. 1254). The PDCs were cultured in complete DMEM/F12 media without 9.7 microM Y-27632 dihydrochloride for at least two passages prior to the screen. The established cell line HOP-62 was cultured in RPMI 1640 medium, HEPES (Invitrogen, cat. 22400105) with 10% defined fetal bovine serum (HyClone Laboratories Inc., cat. SH30070.03) and 2 mM L-glutamine (Invitrogen, cat. 25030081). The pooled donor HUVEC were cultured in endothelial cell growth medium 2 (PromoCell, Heidelberg, Germany, cat. C-22011) and the hMSC were cultured in mesenchymal stem cell growth medium 2 (PromoCell, cat. C-28009). For all experiments, HUVEC and hMSC were used at passages </=5, while the malignant cell lines were used at passages </=15. […]

[1] = second compound 0.1 µM, first compound 0.0316 µM
[2] = second compound 0.1 µM, first compound 0.1 µM
[3] = second compound 0.1 µM, first compound 0.316 µM
[4] = second compound 0.1 µM, first compound 1 µM
[5] = second compound 0.1 µM, first compound 3.16 µM
[6] = second compound 0.1 µM, first compound 10 µM
[7] = second compound 0.316 µM, first compound 0.0316 µM
[8] = second compound 0.316 µM, first compound 0.1 µM
[9] = second compound 0.316 µM, first compound 0.316 µM
[10] = second compound 0.316 µM, first compound 1 µM
[11] = second compound 0.316 µM, first compound 3.16 µM
[12] = second compound 0.316 µM, first compound 10 µM
[13] = second compound 1 µM, first compound 0.0316 µM
[14] = second compound 1 µM, first compound 0.1 µM
[15] = second compound 1 µM, first compound 0.316 µM
[16] = second compound 1 µM, first compound 1 µM
[17] = second compound 1 µM, first compound 3.16 µM
[18] = second compound 1 µM, first compound 10 µM
[19] = second compound 3.16 µM, first compound 0.0316 µM
[20] = second compound 3.16 µM, first compound 0.1 µM
[21] = second compound 3.16 µM, first compound 0.316 µM
[22] = second compound 3.16 µM, first compound 1 µM
[23] = second compound 3.16 µM, first compound 3.16 µM
[24] = second compound 3.16 µM, first compound 10 µM
[25] = second compound 10 µM, first compound 0.0316 µM
[26] = second compound 10 µM, first compound 0.1 µM
[27] = second compound 10 µM, first compound 0.316 µM
[28] = second compound 10 µM, first compound 1 µM
[29] = second compound 10 µM, first compound 3.16 µM
[30] = second compound 10 µM, first compound 10 µM
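Note: spheroids exposed to compounds for 7 days.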
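Throughout, for viability, T/C: 100% = DMSO vehicle control viability.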

| Structure (SMILES) | IC50 (second compound 0.1 µM) [nM] | IC50 (second compound 0.316 µM) [nM] | IC50 (second compound 1 µM) [nM] | IC50 (second compound 3.16 µM) [nM] | IC50 (second compound 10 µM) [nM] | viability, T/C [1] [%] | viability, T/C [2] [%] | viability, T/C [3] [%] | viability, T/C [4] [%] | viability, T/C [5] [%] | viability, T/C [6] [%] | viability, T/C [7] [%] | viability, T/C [8] [%] | viability, T/C [9] [%] | viability, T/C [10] [%] | viability, T/C [11] [%] | viability, T/C [12] [%] | viability, T/C [13] [%] | viability, T/C [14] [%] | viability, T/C [15] [%] | also measured |
| --- | --- | --- | --- | --- | --- | --- | --- | --- | --- | --- | --- | --- | --- | --- | --- | --- | --- | --- | --- | --- | --- |
| COC(=O)c1ccc2c(C(=Nc3ccc(N(C)C(=O)CN4CCN(C)CC4)cc3)c3ccccc3)c(O)[nH]c2c1 + C=CC(=O)N1CCN(c2nc(=O)n(-c3c(C)ccnc3C(C)C)c3nc(-c4c(O)cccc4F)c(F)cc23)C(C)C1 | 633 | 738 | 513 | 472 | 444 | 83.3 | 88.2 | 72.2 | 35.4 | 0.37 | 0.76 | 76.2 | 82.6 | 77.7 | 40 | 0.17 | 0.12 | 77.3 | 75.7 | 85.6 | viability, T/C [16]: 9.2%; viability, T/C [17]: 0.13%; viability, T/C [18]: 0.13%; viability, T/C [19]: 83%; viability, T/C [20]: 76.4%; viability, T/C [21]: 71.6%; viability, T/C [22]: 9.78%; viability, T/C [23]: 1.23%; viability, T/C [24]: 0.13%; viability, T/C [25]: 71.2%; viability, T/C [26]: 67%; viability, T/C [27]: 68.7%; viability, T/C [28]: 5.2%; viability, T/C [29]: 0.99%; viability, T/C [30]: 0.17% |
| O=C(c1cc(Cc2n[nH]c(=O)c3ccccc23)ccc1F)N1CCN(C(=O)C2CC2)CC1 + C=CC(=O)N1CCN(c2nc(=O)n(-c3c(C)ccnc3C(C)C)c3nc(-c4c(O)cccc4F)c(F)cc23)C(C)C1 | > 10000 | > 10000 | > 10000 | > 10000 | > 10000 | 97.5 | 89.9 | 107 | 71.9 | 71.1 | 77.9 | 90.2 | 96.8 | 77.2 | 81.9 | 65.7 | 80.9 | 100 | 84.3 | 77.8 | viability, T/C [16]: 62.8%; viability, T/C [17]: 70.8%; viability, T/C [18]: 88.1%; viability, T/C [19]: 68.3%; viability, T/C [20]: 90.3%; viability, T/C [21]: 78.4%; viability, T/C [22]: 75.8%; viability, T/C [23]: 73.3%; viability, T/C [24]: 70.4%; viability, T/C [25]: 96.4%; viability, T/C [26]: 82.3%; viability, T/C [27]: 90.8%; viability, T/C [28]: 72%; viability, T/C [29]: 66.5%; viability, T/C [30]: 91.7% |
